US7413876B2 (priority 1990, dated 2008)

Tests used:
[1] = target: human β2-adrenergic receptor (hβAR) (Homo sapiens, UniProt P07550)
Method: After 36 hours, cells were harvested and spheroplasts were prepared as described. […] Briefly, the spheroplasts were resuspended in 50 mM Tris-HCl pH 7.4, 5 mM EDTA and were lysed by vortex mixing with glass beads for three one-min periods at 4° C.
FIG. 2 illustrates hβAR ligand binding to membranes from pYβAR2-transformed yeast cells. […] Specific binding was defined as the amount of total binding (circles) minus nonspecific binding measured in the presence of 10 μM (−) alprenolol (squares).

[2] = target: T1, Human β-Adrenergic Receptor (Homo sapiens, UniProt P07550); settings: Monkey COS-7 (pBC12: β, BAR); cited from earlier work
T1 construct: expressed in transfected cells; host or cells: monkey COS-7 cells

[3] = test system: pheromone-responsive FUS1 gene promoter; assay: FUS1-lacZ β-galactosidase induction in 8cl (gpal) cells coexpressing hβAR and rat Gsα; type: cell-based, yeast
Method: To confirm that the pheromone signaling pathway was activated by hβAR and rat Gsα, agonist induction of the pheromone-responsive FUSl gene promoter was measured in a strain of yeast derived from 8c cells (8cl) in which a FUS1-lacZ gene fusion had been stably integrated into the genome.
Strains 8c (FIG. 3, legend) and NNY19 (MATa ura3 leu2 his3 trp1 lys2 FUSl-LacZ::LEU2) were modified by integrative transformation with YIpFUS102 (LEU2), S. Nomoto et al., supra, and designated 8cl and NNY19, respectively. These strains were transformed with pYβAR2 and pYSK136Gαs and maintained on minimal selective plates containing glucose and 50 μM CuSO4. […] See J. Miller, supra.
Agonist stimulation was stereoselective and was blocked by addition of a specific antagonist. Agonist responsiveness was dependent on expression of both hβAR and rat Gsα, and required a strain in which the endogenous G protein α-subunit was disrupted.

[4] = test system: 8c cells coexpressing hβAR and rat Gsα; assay: Shmoo formation (morphology) of yeast strain 8c (gpa1) coexpressing hβAR and rat Gsα
Method: Colonies were transferred to similar plates containing 0.5 mM ascorbic acid and the indicated adrenergic ligand(s). After 16-20 hours at 30° C., the colonies were transferred to similar liquid media at a density of 10^6-10^7 cells/ml and examined by phase contrast microscopy.

Molecule: CC(C)(C)NC[C@H](O)COc1cccc2[nH]c(C#N)c([125I])c12 [125I-CYP, 125I-labeled cyanopindolol]
- Bmax, maximum ligand bound ([1]; Yeast SC261 (pYβAR2, pMTL9) membranes): 115 pmol/mg
- binding of 125I-CYP to membranes ([1]; membranes from pYβAR2-transformed yeast cells): bound in a saturable manner and with high affinity
- Bmax, maximum ligand bound [2]: 24 pmol/mg

Molecule: CC(C)(C)NC[C@H](O)COc1cccc2[nH]c(C#N)c(I)c12 [125I-CYP, 125I-labeled cyanopindolol]
- Kd ([1]; read-out: Kd for 125I-CYP binding, 125I-CYP 5-400 pM, nonspecific binding with 10 μM (−) alprenolol): 0.093 nM

Molecule: CC(C)NCC(O)c1ccc(O)c(O)c1 (stereo not drawn) [isoproterenol]
- induction of β-galactosidase activity ([3]; 8cl (gpal) cells, 4 hour incubation at 30° C.): dramatic isoproterenol-stimulated induction
- final β-galactosidase activity relative to α-factor in nontransformed NNY19 cells ([3]; transformed 8cl cells vs NNY19 cells expressing GPA1): comparable to that induced by α-factor
- shmoo formation ([4]; 100 μM isoproterenol, 16-20 hours at 30° C., phase contrast microscopy): induced shmoo formation

Molecule: (−) epinephrine
- Ki [1]: 664 ± 123 nM

Molecule: C=CCc1ccccc1OCC(O)CNC(C)C (stereo not drawn) [alprenolol]
- block of isoproterenol-induced shmoo formation ([4]; 100 μM (−) isoproterenol and 50 μM (−) alprenolol): blocked
